# Measurements reported in patent US9089532B2, “Stable dosage form of phenylalanine derivatives” (Wilex AG, priority 2004, dated 2015).
# Legend:
# Assay type in all cases: physicochemical
# [1] = Stability of sodium acetate-buffered solutions of various molarities at 60° C.; conditions: buffering the formulation with sodium acetate pH 5, 60° C., relative to unbuffered formulation
# Method: The stability study was carried out at 60° C. in order to achieve accelerated breakdown of WX-UK1 (FIG. 5). The WX-UK1 peak area percentage, determined by a stability-indicating HPLC method, was evaluated.
# [2] = Preliminary testing: solubility of WX-UK1 in solvents and solvent mixtures; conditions: in polyols, for example diols, and in mixtures of polyol/alcohol and water
# From the text: Both solvents are additionally suitable for parenteral administration of active ingredients.
# FIG. 1 is a Table showing the maximum solubility of WX-UK1 in various solvents and solvent mixtures.
# [3] = pH-dependency of active ingredient breakdown at 60° C.; conditions: ethanol/water 1:1, 60° C., up to 48 h
# Method: The pH-dependency of active ingredient breakdown (WX-UK1) was investigated at three different pH values with heat treatment at 60° C. by dissolving 2.5 mg of WX-UK1 in 1 ml of ethanol/water (1:1 vol/vol). This solution was aliquoted into three vessels. One aliquot was adjusted to pH 2 by addition of 20 μl of 1 N hydrochloric acid, a second aliquot was adjusted to pH 11 by addition of 20 μl of 2 N sodium hydroxide solution and the third aliquot was left at a neutral pH. After incubation, the solutions were analysed at defined points in time (0, 5, 12 and 48 h) by means of a stability-indicating HPLC method.
# [4] = Earlier investigations: addition of phosphate buffer to WX-UK1 solutions
# [5] = Stability study at 40° C./75% RH of the unbuffered PG/EtOH/water formulation (impurity content, pH value); conditions: 40 mg/ml in PG/ethanol/water, stored at 40° C., 2-12 weeks
# Method: At the same time, the pH value of the formulation rose from 5.1 to 8.7 over a period of 12 weeks (FIG. 1).
# 0.4 ml of propylene glycol (PG) and 0.1 ml of ethanol were added in succession to 40 mg of WX-UK1. […] The remaining water (approx. 0.2 ml) was then added. The solution was then stored at 40° C. and the pH value and purity of the solution were in each case analysed after a period of 2, 4, 6, 8 and 12 weeks. To this end, 250 μl of the WX-UK1 solution were transferred into a 100 ml measuring flask and made up with water/acetonitrile (50:50 vol/vol) to the graduation mark (concentration: approx. 0.1 mg/ml of WX-UK1). 20 μl of this dilution were then analysed by means of a stability-indicating HPLC method analysed (see Annex). pH value-analysis of the WX-UK1 solution was carried out by means of a potentiometric method at 20-25° C.
smiles,measurement,setting,value
"CCOC(=O)N1CCN(C(=O)[C@H](Cc2cccc(C(=N)N)c2)NS(=O)(=O)c2c(C(C)C)cc(C(C)C)cc2C(C)C)CC1 [WX-UK1, Nα-(2,4,6-triisopropylphenylsulfonyl)-3-amidino-(L)-phenylalanine-4-ethoxycarbonylpiperazide]",rate of breakdown,[1],considerable reduction in the rate of breakdown
same,solubility,[2],very good solubility
same,"stability (breakdown, HPLC)",[3]; acidic pH (pH 2),remained stable
same,"stability (breakdown, HPLC)",[3]; neutral or basic pH (pH 11),moderate to rapid breakdown
same,precipitate formation,[4],formation of a precipitate
same,breakdown in relation to pH value of the solution,[5],"the higher is the pH value of the solution, the faster WX-UK1 breaks down"
